PMC12579162, “Synthesized Depside Molecules Suppress the Progression of Colorectal Cancer by Binding VDAC1/PHB/MMP9 Being at the Crossroads of Stemness, Motility, Apoptosis, and Metabolism” (MedComm, 2025)
pIC50: −log10 of the molar value.

Key:
[1] = system: HEK293T cells; test: MTT cell viability, HEK293T; format: cell-based; conditions: Homo sapiens, HEK-293T; 48 h, MTT assay
Procedure: Cells (3 × 10^3 cells/well) were seeded on a 96‐well plate, grown overnight, and then treated with compounds at indicated concentrations for 48 h. After incubation with MTT for 4 h at 37°C, cells were lysed with 150 µL of DMSO (Sigma–Aldrich, St. Louis, USA). Absorbance was measured at 570 nm on a microplate reader with the Gen5 software (v.2.03.1; BioTek, Winooski, VT, USA).

[2] = system: CT26–iRFP cells; test: CT26–iRFP derived tumor growth model; format: in vivo, BALB/C mice; conditions: 5, 10, or 20 mg/kg intraperitoneally every other day
Procedure: The antitumor efficacy of VDAC1/PHB/MMP‐binding compound was evaluated using a xenograft model. Six‐week‐old male BALB/C mice were obtained from OrientBio. 1 × 10⁶ CT26 cells were subcutaneously implanted to each mouse. After 1 week inoculation, mice were treated with intraperitoneal injections of either vehicle (DMSO/PBS) or SB4 at a dose of 5, 10 and 20 mg/kg, administered every other day. Tumor volumes and body weight was measured every 2 days. Bioimaging of near‐infrared fluorescence was obtained using a FOBI system (Cellgentek, Osong, Korea) for three time point. After euthanizing the mice, tumor tissues were successfully collected, and the tumor weight was measured for each sample. According to the Guiding Principles in the Care and Use of Animals (DHEW publication, NIH 80–23), the in vivo experiments were performed with the approval of the Sunchon National University Research Institutional Animal Care and Use Committee (SCNU IACUC‐2024‐17).

[3] = system: CSC221, DLD1, CaCo2, HT29, HCT116, and SW620 cells; test: Seahorse XF Cell Mito Stress Test; format: cell-based, human; conditions: 5 µM, 48 h
Procedure: Seahorse XF96 extracellular flux analyzer (Agilent, Santa Clara, CA, USA) was used for glycolytic rate and cell mito stress test assays. Cells were seeded at 1 × 10^4 cells/well, incubated overnight in culture medium (2% FBS), and then treated with DMSO or compound for 48 h. The plated cells were twice washed and loaded (180 µL) with assay media enhanced with glutamine, sodium pyruvate, and glucose on the day of analysis. Before analysis, the cells were incubated for 1 h at 37°C in a non‐CO2 incubator. Then, cell mito stress, mito tox, or glycolytic rate assay was tested. Agilent Seahorse XF Mito Stress Test Kit was utilized in accordance with Agilent Seahorse's standard methodology. This test examines the OCR of cells directly, which provides important information on mitochondrial function. First, 1 µM oligomycin (inhibits ATP synthase) was injected. The second injection was FCCP (1 µM), an uncoupling agent that compresses the proton gradient and disturbs the mitochondrial membrane potential. Last injection with 0.5 µM Rotenone (Rot; a complex I inhibitor) + antimycin A (AA; a complex III inhibitor) was loaded for OCR analysis. Agilent Seahorse XF Glycolytic Rate Assay was utilized in accordance with Agilent Seahorse's standard methodology. […] The results were analyzed using the Wave software (Agilent).

SMILES | pIC50 [1] | mouse body weight [2] | tumor volume and weight ([2]; versus control) | oxygen consumption rate (OCR) [3]
COCCOc1c(C)c(OC(=O)c2c(C)cc(OC)c(C)c2OC)cc(C)c1C(=O)OC [SB4, 4-(Methoxycarbonyl)-3-(2-methoxyethoxy)-2,5-dimethylphenyl 2,4-dimethoxy-3,6-dimethylbenzoate] | 4.72 | did not influence mouse body weight | significantly reduced both tumor volume and weight in a dose‐dependent manner | dramatically suppresses the oxygen consumption rate (OCR)
COCCCOc1c(C)c(OC(=O)c2c(C)cc(OC)c(C)c2OC)cc(C)c1C(=O)OC [SB5, 4-(Methoxycarbonyl)-3-(3-methoxypropoxy)-2,5-dimethylphenyl 2,4-dimethoxy-3,6-dimethylbenzoate] | 4.20 |  |  | dramatically suppresses the oxygen consumption rate (OCR)
